These results are taken from ChEMBL document CHEMBL1142055, “Quinolinium salt as a potent inhibitor of lymphocyte apoptosis” (Bioorg Med Chem Lett, 2005).

A value given as a limit tells only on which side of the number the result lay.

For this test, the species on record is Mus musculus. Briefly: Effective concentration by cytoprotection activity on glucocorticoid-induced apoptosis in murine thymocytes was determined in vitro. Type of test: functional.
The term EC50 denotes the concentration needed to bring the measured effect to its halfway point. A high value points to weaker potency. For `Cc1ccc(C(=O)Cn2c(=O)ccc3ccccc32)cc1`, the EC50 was more than 10 µM. The compound `CO/N=C(/Cn1c(=O)ccc2ccccc21)c1ccc(N2CCCC2)cc1` had an EC50 of more than 10 µM.

With `Cc1ccc(C(=O)C[n+]2cccc3ccccc32)cc1`, the EC50 is more than 10 µM.

As for `CO/N=C(/C[n+]1ccccc1)c1ccc(C)cc1`, the EC50 came out at 5.1 µM.

Take `CO/N=C(/C[n+]1cccc2ccccc21)c1ccc(N2CCCC2)cc1`: the EC50 is 0.013 µM. This EC50 is about 390-fold lower than that of the compound before.

In turn, `Cc1ccc(-c2cn3c4c(sc3n2)CCCC4)cc1` registered an EC50 of 2.5 µM. Turning to `CO/N=C(/Cn1c(=O)ccc2ccccc21)c1ccc(C)cc1`, the EC50 was more than 10 µM. `CO/N=C(/C[n+]1ccccc1)c1ccc(N2CCCC2)cc1` came in with an EC50 of 0.28 µM. The compound `Cc1ccc(C(=O)Cn2c3c(sc2=N)CCCC3)cc1` showed an EC50 of 4.4 µM. For `Cc1ccc(C(=O)C[n+]2ccccc2)cc1`, the EC50 was more than 10 µM. In turn, `CO/N=C(/C[n+]1cccc2ccccc21)c1ccc(C)cc1` showed an EC50 of 0.35 µM.
